Legend:
plasma [1] = experiment: Kaolin Activated Partial Thromboplastin Time Test (APTT); type: biochemical; details: 37°
Protocol: Kaolin Activated Partial Thromboplastin Time Test Protocol
(§1) Venous blood was collected into 3.2% (0.109 m) trisodium citrate vacutainer tubes at 1 volume of anticoagulant to nine volumes of blood.
(§2) The blood cells were separated by centrifugation at 700 g for ten minutes to yield plasma, which was frozen at […] until required.
(§3) To perform the test, 100 μl of plasma was pipetted into in a glass test tube, 1 μl of test compound in DMSO was added, and allowed to warm to 37° over two minutes.
100 μl of APTT reagent resuspended in Owren's buffer (Thrombosis Reference Centre University of Manchester, withington Hospital, Manchester) was added, mixed thoroughly, and 100 μl of prewarmed kaolin suspension in Owren's buffer added.
This mixture was incubated for ten minutes at 37°, with regular gentle mixing by tilting through a 90° angle, three times sequentially at one minute intervals to maintain the kaolin in suspension.
After ten minutes 100 μl of 25 mM calcium chloride solution was added, the suspension redispersed by mixing as above and the time to clot formation recorded.
(§4) Data from a series of observations and test compound concentrations are analysed by a SAS statistical analysis program and a CT2 (Concentration required to double clotting time) for each compound is generated.

human factor Xa = human factor Xa (Homo sapiens, UniProt P00742); experiment: Enzyme inhibition assay, factor Xa (chromogenic substrate pefachrome-FXA); details: for FXa pKi: room temperature, 0.1M phosphate buffer, pH7.4
plasma [2] = experiment: Partial Thromboplastin Time Test (PT, tissue thromboplastin reagent); type: biochemical; details: Manchester (tissue thromboplasin) reagent, 37°
Protocol: Partial Thromboplastin Time Test Protocol
as §1, §2, §3
100 μl of warm (37°) Manchester (tissue thromboplasin) reagent (Helena Biosciences, UK) was added, allowed to equilibrate for sixty seconds. 100 μl of warm (37°) 25 mM calcium chloride solution was added to initiate clotting.
The test tube was tilted three times through a 90° angle every five seconds to mix the reagents and the time to clot formation recorded.
as §4

thrombin = thrombin (Homo sapiens, UniProt P00734); experiment: Enzyme inhibition assay, thrombin (chromogenic substrate pefachrome-TH); details: for thrombin pKi: room temperature, 0.1M phosphate buffer, pH7.4
trypsin = trypsin (Homo sapiens, UniProt P07477); experiment: Enzyme inhibition assay, trypsin (chromogenic substrate pefachrome-TRY); details: for trypsin pKi: room temperature, 0.1M phosphate buffer, pH7.4

Chain of human factor Xa (P00742 235-488 limits assumed): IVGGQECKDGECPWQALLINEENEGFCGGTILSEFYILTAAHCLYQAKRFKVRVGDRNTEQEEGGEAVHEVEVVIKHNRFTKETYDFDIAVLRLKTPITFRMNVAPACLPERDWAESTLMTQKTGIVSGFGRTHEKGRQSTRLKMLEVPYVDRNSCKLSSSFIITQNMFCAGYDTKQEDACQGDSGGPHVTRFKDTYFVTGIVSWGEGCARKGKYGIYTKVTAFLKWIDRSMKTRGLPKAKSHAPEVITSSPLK
Chain of human factor Xa (P00742 41-179 partner limits assumed): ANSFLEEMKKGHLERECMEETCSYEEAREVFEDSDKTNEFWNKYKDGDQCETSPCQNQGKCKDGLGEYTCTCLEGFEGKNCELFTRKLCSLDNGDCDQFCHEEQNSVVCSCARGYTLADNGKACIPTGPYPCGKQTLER

With “3-Amidino-benzoyl-D-phenylglycinyl-D-2-naphthylalanine amide [Example 36]” the “APTT CT2 (Concentration required to double clotting time)” value (shortened to “APTT CT2”) (plasma [1]) was 9.4 µM, the “FXa pKi” value (human factor Xa) was 7.12 and the “PT CT2 (Concentration required to double clotting time)” value (“PT CT2” below) (plasma [2]) was 9 µM. For the same compound, the “thrombin pKi” value (thrombin) was 6.24 and the “trypsin pKi” value (trypsin) was 6.16.

With “3-Amidino-benzoyl-D-phenylglycinyl-D-2-naphthylalaninyl N-methylglycine [Example 32]” the “APTT CT2” value (plasma [1]) was 7.4 µM, the “FXa pKi” value (human factor Xa) was 7.39 and the “PT CT2” value (plasma [2]) was 5.6 µM. The “thrombin pKi” value (thrombin) was 6.09 and the “trypsin pKi” value (trypsin) was 5.65.

With “3-Amidino-benzoyl-D-phenylglycinyl-D-2-naphthylalaninyl-D-proline [Example 33]” the “FXa pKi” value (human factor Xa) was 7.50, the “PT CT2” value (plasma [2]) was 7.1 µM and the “thrombin pKi” value (thrombin) was 6.14. The “trypsin pKi” value (trypsin) was 6.39.

With “3-Amidino-benzoyl-D-phenylglycinyl-D-2-naphthylalaninyl-glycine [Example 31]” the “APTT CT2” value (plasma [1]) was 3.7 µM, the “FXa pKi” value (human factor Xa) was 6.80 and the “PT CT2” value (plasma [2]) was 3.2 µM. The “thrombin pKi” value (thrombin) was 6.98 and the “trypsin pKi” value (trypsin) was 5.56.

In the case of “3-Amidino-benzoyl-D-phenylglycinyl-D-phenylalanine-N-pyrrolidinamide [Example 66]”, the “APTT CT2” value (plasma [1]) is reported as 4.5 µM, the “FXa pKi” value (human factor Xa) is reported as 6.94 and the “PT CT2” value (plasma [2]) is reported as 4.6 µM. The “thrombin pKi” value (thrombin) was 6.66 and the “trypsin pKi” value (trypsin) was 6.55.

For N=C(N)c1ccc(N)c(C(=O)N[C@@H](C(=O)NCC2CCC(CN)CC2)c2ccccc2)c1 (mixture of isomers) [Example 89, 2-Amino-5-amidinobenzoyl-D-phenylglycine-4-amlnomethylcyclohexyl methylamide], the Ki (human factor Xa) was 14.1 nM, the Ki (thrombin) was 1.02 µM and the Ki (trypsin) was 245 nM.

With N=C(N)c1cccc(C(=O)NC(C(=O)NCC2CCC(CN)CC2)c2ccc3ccccc3c2)c1 (racemic) [Example 12, 3-Amidino-benzoyl-DL-2-naphthylglycine 4-aminomethylcyclohexyl methylamide] the “APTT CT2” value (plasma [1]) was 6.5 µM, the Ki (human factor Xa) was 407 nM and the “PT CT2” value (plasma [2]) was 3.4 µM. The Ki (thrombin) was 5.37 µM and the Ki (trypsin) was 794 nM.

CC(C)[C@@H](NC(=O)[C@H](NC(=O)c1cccc(C(=N)N)c1)c1ccccc1)C(N)=O [Example 37, 3-Amidino-benzoyl-D-phenylglycinyl-D-valine amide] was tested, and the “APTT CT2” value (plasma [1]) was 36 µM, the Ki (human factor Xa) was 162 nM and the “PT CT2” value (plasma [2]) was 15 µM. It also gave a Ki (thrombin) of 17 µM and a Ki (trypsin) of 1450 nM.

N=C(N)c1cccc(C(=O)N[C@@H](C(=O)N2CCC(C(=O)c3ccccc3)CC2)c2ccccc2)c1 [Example 63, 3-Amidino-benzoyl-D-phenylglycine-4-benzoyl piperidinamide] was tested, and the “PT CT2” value (plasma [2]) was 3.7 µM, the Ki (thrombin) was 1.1 µM and the Ki (trypsin) was 288 nM.

With Cc1ccc(CNC(=O)[C@H](NC(=O)c2cccc(C(=N)N)c2)c2ccccc2)cc1 [Example 64, 3-Amidino-benzoyl-D-phenylglycine-4-methylbenzylamide] the “APTT CT2” value (plasma [1]) was 7.6 µM, the Ki (human factor Xa) was 87.1 nM and the “PT CT2” value (plasma [2]) was 8.3 µM. The “thrombin pKi” value (thrombin) was 5.72 and the Ki (trypsin) was 1230 nM.

Work on N=C(N)c1cccc(C(=O)N[C@@H](C(=O)NCc2cccc3ccccc23)c2ccccc2)c1 [Example 65, 3-Amidino-benzoyl-D-phenylglycine-1-naphthylmethylamide] yielded a Ki (human factor Xa) of 64.6 nM, a Ki (thrombin) of 1.17 µM and a Ki (trypsin) of 1620 nM.

In the case of N=C(N)c1cccc(C(=O)N[C@@H](C(=O)NC2C3CC4CC(C3)CC2C4)c2ccccc2)c1 (stereo partly drawn) [Example 68, 3-Amidino-benzoyl-D-phenylglycine-2adamantylamide], the Ki (human factor Xa) is reported as 97.7 nM, the “PT CT2” value (plasma [2]) is reported as 17 µM and the Ki (thrombin) is reported as 4.79 µM. The Ki (trypsin) was 2570 nM.

C[C@@H](NC(=O)[C@H](NC(=O)c1cccc(C(=N)N)c1)c1ccccc1)c1cccc2ccccc12 [Example 80, 3-Amidino-benzoyl-D-phenylglycine-R-1-(1-naphthyl)ethylamide] gave a Ki (human factor Xa) of 269 nM, a Ki (thrombin) of 6.92 µM and a Ki (trypsin) of 1860 nM.

CC(=N)N1CCC(CCOC(=O)[C@H](NC(=O)c2cccc(C(=N)N)c2)c2ccccc2)CC1 [Example 84, 3-Amidino-benzoyl-D-phenylglycine-2-(N-acetimino-4-piperidinyl) ethyl ester] was tested, and the “APTT CT2” value (plasma [1]) was 5.8 µM, the Ki (human factor Xa) was 10.5 nM and the “PT CT2” value (plasma [2]) was 1.9 µM. It also gave a Ki (thrombin) of 9.12 µM and a Ki (trypsin) of 2450 nM.

N=C(N)c1cccc(C(=O)N[C@@H](C(=O)OCCC2CCN(C(=N)N)CC2)c2ccccc2)c1 [Example 87, 3-Amidino-benzoyl-D-phenylglycine-2-(N-amidino-4-piperidinyl) ethyl ester] was tested, and the “APTT CT2” value (plasma [1]) was 14 µM, the Ki (human factor Xa) was 24 nM and the “PT CT2” value (plasma [2]) was 4.2 µM. The “thrombin pKi” value (thrombin) was 5.10 and the Ki (trypsin) was 1290 nM.
